Tests used:
[1] = tested on: Human immunodeficiency virus 1; assay: Effective concentration required for 50% protection of MT-4 cells against the cytopathic effect of HIV-1; type: functional, organism-based; settings: Human immunodeficiency virus 1, MT4
[2] = Concentration required to reduce viability of mock-infected MT-4 cells; type: functional; settings: Homo sapiens, MT4
MT4 [3] = assay: Ratio of the EC50 against HIV-1 infected MT-4 cells and CC50 against mock infected MT-4 cells.; type: functional
MT4 [4] = assay: Concentration required to inhibit replication of HIV-2 LAV-2rod strain in MT-4 cells; type: functional, cell-based; settings: Homo sapiens
[5] = Concentration required to inhibit replication of HIV-1 HTLV-IIIB strain in PBL (peripheral blood lymphocytes) cells; type: functional, cell-based; settings: Homo sapiens
MT4 [6] = assay: Concentration to required to reduce viability of Mock infected MT-4 cells; type: functional; settings: Homo sapiens
[7] = Concentration required to reduce viability of Mock infected PBL (peripheral blood lymphocytes) cells.; type: functional; settings: Homo sapiens
MT4 [8] = assay: Cytotoxicity to required to reduce viability of Mock infected MT-4 cells of LAV-2rod strain against HIV-2 replication; type: functional; settings: Homo sapiens

In the case of `CCc1c(Sc2ccccc2)n(COCC2CCCCC2)c(=O)[nH]c1=O`, the EC50 [1] is reported as 0.45 µM, the CC50 [2] is reported as 17 µM and the Selectivity index (MT4 [3]) is reported as 38.

In the case of `CCc1c(Sc2ccccc2)n(COCCc2ccccc2)c(=O)[nH]c1=O`, the EC50 [1] is reported as 0.096 µM, the CC50 [2] is reported as 38 µM and the Selectivity index (MT4 [3]) is reported as 396.

Compound `CC(C)c1c(Sc2ccccc2)n(COCc2ccccc2)c(=S)[nH]c1=O` has an EC50 [1] of 0.0068 µM, a CC50 [2] of over 20 µM and a Selectivity index (MT4 [3]) of over 2940.

In the case of `CCOCn1c(Sc2ccccc2)c(C(C)C)c(=O)[nH]c1=S`, the EC50 [1] is reported as 0.014 µM, the CC50 [2] is reported as over 100 µM and the Selectivity index (MT4 [3]) is reported as over 7140.

Work on `CCc1c(Sc2ccccc2)n(COCc2ccccc2)c(=S)[nH]c1=O` yielded an EC50 [1] of 0.0078 µM, a CC50 [2] of over 100 µM and an EC50 (MT4 [4]) of over 100 µM. It also gave a Selectivity index (MT4 [3]) of over 12800, an EC50 [5] of 0.0037 µM and a CC50 (MT4 [6]) of over 100 µM. The CC50 [7] was 28 µM.

`CCc1c(Sc2ccccc2)n(COCCc2ccccc2)c(=S)[nH]c1=O` gave an EC50 [1] of 0.091 µM, a CC50 [2] of over 20 µM and a Selectivity index (MT4 [3]) of over 220.

With `CCc1c(Sc2ccccc2)n(COCc2ccc(C)cc2)c(=S)[nH]c1=O` the EC50 [1] was 0.078 µM, the CC50 [2] was over 20 µM and the Selectivity index (MT4 [3]) was over 256.

With `CCc1c(Sc2cc(C)cc(C)c2)n(COCc2ccccc2)c(=S)[nH]c1=O` the EC50 [1] was 0.0069 µM, the CC50 [2] was over 20 µM and the Selectivity index (MT4 [3]) was over 2900.

`CCOCn1c(Sc2cc(C)cc(C)c2)c(CC)c(=O)[nH]c1=O` showed a CC50 (MT4 [8]) of over 100 µM, an EC50 [1] of 0.0054 µM and a CC50 [2] of over 100 µM. For the same compound, the EC50 (MT4 [4]) was over 100 µM, the Selectivity index (MT4 [3]) was over 18500 and the EC50 [5] was 0.0018 µM. The CC50 [7] was 56 µM.

`CCc1c(Sc2ccccc2)n(COCC2CCCCC2)c(=S)[nH]c1=O` showed an EC50 [1] of 0.35 µM, a CC50 [2] of over 100 µM and a Selectivity index (MT4 [3]) of over 286.

Compound `CCc1c(Sc2ccccc2)n(CC(C)C)c(=S)[nH]c1=O` has an EC50 [1] of 0.22 µM, a CC50 [2] of over 100 µM and a Selectivity index (MT4 [3]) of over 455.

Work on `CCCCOCn1c(Sc2ccccc2)c(C)c(=O)[nH]c1=O` yielded an EC50 [1] of 4.7 µM, a CC50 [2] of 83 µM and a Selectivity index (MT4 [3]) of 18.

Compound `CCCCCOCCOCn1c(Sc2ccccc2)c(C)c(=O)[nH]c1=O` has an EC50 [1] of over 55 µM, a CC50 [2] of 55 µM and a Selectivity index (MT4 [3]) of under 1.

`CCc1c(Sc2ccccc2)n(COC(C)C)c(=O)[nH]c1=O` showed an EC50 [1] of 0.34 µM, a CC50 [2] of 143 µM and a Selectivity index (MT4 [3]) of 421.

For `CCc1c(Sc2ccccc2)n(COCc2ccccc2)c(=O)[nH]c1=O`, the EC50 [1] was 0.0059 µM, the EC50 (MT4 [4]) was over 30 µM and the Selectivity index (MT4 [3]) was 5800. It also gave an EC50 [5] of 0.0015 µM, a CC50 (MT4 [6]) of 30 µM and a CC50 [7] of 43 µM.

Work on `CCCCn1c(Sc2ccccc2)c(C)c(=O)[nH]c1=O` yielded an EC50 [1] of 1.2 µM, a CC50 [2] of 89 µM and a Selectivity index (MT4 [3]) of 74.

In the case of `Cc1c(O)nc(O)nc1Sc1ccccc1`, the EC50 [1] is reported as over 250 µM, the CC50 [2] is reported as 250 µM and the Selectivity index (MT4 [3]) is reported as under 1.

In the case of `Cc1c(Sc2ccccc2)n(C)c(=O)[nH]c1=O`, the EC50 [1] is reported as over 150 µM, the CC50 [2] is reported as 150 µM and the Selectivity index (MT4 [3]) is reported as under 1.

Work on `CCc1c(Sc2cc(C)cc(C)c2)n(COCc2ccccc2)c(=O)[nH]c1=O` yielded an EC50 [1] of 0.0032 µM, a CC50 [2] of over 20 µM and a Selectivity index (MT4 [3]) of over 6250.

With `CCOCn1c(Sc2ccccc2)c(C2CC2)c(=O)[nH]c1=S` the EC50 [1] was 0.095 µM, the CC50 [2] was 46 µM and the Selectivity index (MT4 [3]) was 484.

Compound `CCc1c(Sc2ccccc2)n(COCc2ccc(Cl)cc2)c(=S)[nH]c1=O` has an EC50 [1] of 0.012 µM, a CC50 [2] of over 20 µM and a Selectivity index (MT4 [3]) of over 1670.

For `CCc1c(Sc2ccccc2)n(COC2CCCCC2)c(=S)[nH]c1=O`, the EC50 [1] was 1.6 µM, the CC50 [2] was 223 µM and the Selectivity index (MT4 [3]) was 139.

`CCOCn1c(Sc2cc(Cl)cc(Cl)c2)c(CC)c(=O)[nH]c1=O` gave an EC50 [1] of 0.0074 µM, a CC50 [2] of 45 µM and a Selectivity index (MT4 [3]) of 6080.

`CCOCn1c(Sc2cc(C)cc(C)c2)c(CC)c(=O)[nH]c1=S` showed an EC50 [1] of 0.0044 µM, a CC50 [2] of over 100 µM and an EC50 (MT4 [4]) of over 100 µM. It also gave a Selectivity index (MT4 [3]) of over 22700, an EC50 [5] of 0.0022 µM and a CC50 (MT4 [6]) of over 100 µM. For the same compound, the CC50 [7] was 33 µM.

Compound `CCOCn1c(Sc2cc(Cl)cc(Cl)c2)c(CC)c(=O)[nH]c1=S` has an EC50 [1] of 0.013 µM, a CC50 [2] of 45 µM and a Selectivity index (MT4 [3]) of 3460.

`CCc1c(Sc2ccccc2)n(COC2CCCCC2)c(=O)[nH]c1=O` gave an EC50 [1] of 4 µM, a CC50 [2] of over 100 µM and a Selectivity index (MT4 [3]) of over 25.

With `Cc1c(Sc2ccccc2)n(COCC[Si](C)(C)C)c(=O)[nH]c1=O` the EC50 [1] was over 32 µM, the CC50 [2] was 32 µM and the Selectivity index (MT4 [3]) was under 1.

Compound `Cc1c(Sc2ccccc2)n(COCCOCc2ccccc2)c(=O)[nH]c1=O` has an EC50 [1] of over 20 µM and a Selectivity index (MT4 [3]) of 2.3.

Work on `CCOCn1c(Sc2ccccc2)c(CC)c(=O)[nH]c1=O` yielded an EC50 [1] of 0.019 µM, an EC50 (MT4 [4]) of over 146 µM and a Selectivity index (MT4 [3]) of 8500. For the same compound, the EC50 [5] was 0.011 µM, the CC50 (MT4 [6]) was 146 µM and the CC50 [7] was 93 µM.

In the case of `Cc1c(Sc2ccccc2)n(COCc2ccccc2)c(=O)[nH]c1=O`, the EC50 [1] is reported as 0.088 µM and the Selectivity index (MT4 [3]) is reported as 1080.

Work on `CCOCn1c(Sc2ccccc2)c(C)c(=O)[nH]c1=O` yielded an EC50 [1] of 0.33 µM and a Selectivity index (MT4 [3]) of 700.

With `COCCOCn1c(Sc2ccccc2)c(C)c(=O)[nH]c1=O` the EC50 [1] was 8.7 µM and the Selectivity index (MT4 [3]) was 34.

`CCOCn1c(Sc2ccccc2)c(C(C)C)c(=O)[nH]c1=O` gave an EC50 [1] of 0.012 µM, a CC50 [2] of 106 µM and a Selectivity index (MT4 [3]) of 8830.

`CCn1c(Sc2ccccc2)c(C)c(=O)[nH]c1=O` gave an EC50 [1] of 2.2 µM, a CC50 [2] of 94 µM and a Selectivity index (MT4 [3]) of 43.

Work on `CC(C)c1c(Sc2ccccc2)n(COCc2ccccc2)c(=O)[nH]c1=O` yielded an EC50 [1] of 0.0027 µM, a CC50 [2] of over 20 µM and a Selectivity index (MT4 [3]) of over 7410.

Compound `COCn1c(Sc2ccccc2)c(C)c(=O)[nH]c1=O` has an EC50 [1] of 2.1 µM, a CC50 [2] of 244 µM and a Selectivity index (MT4 [3]) of 116.

In the case of `CCOCn1c(Sc2ccccc2)c(C2CC2)c(=O)[nH]c1=O`, the EC50 [1] is reported as 0.1 µM, the CC50 [2] is reported as 224 µM and the Selectivity index (MT4 [3]) is reported as 2240.

Work on `CCCOCn1c(Sc2ccccc2)c(C)c(=O)[nH]c1=O` yielded an EC50 [1] of 3.6 µM, a CC50 [2] of 147 µM and a Selectivity index (MT4 [3]) of 41.

Work on `CCOCn1c(Sc2ccccc2)c(CC)c(=O)[nH]c1=S` yielded an EC50 [1] of 0.026 µM, a CC50 [2] of 81 µM and an EC50 (MT4 [4]) of over 50 µM. It also gave a Selectivity index (MT4 [3]) of 3120, an EC50 [5] of 0.013 µM and a CC50 (MT4 [6]) of 50 µM. The CC50 [7] was 35 µM.

Compound `Cc1cn([C@H]2C[C@H](N=[N+]=[N-])[C@@H](CO)O2)c(=O)[nH]c1=O` [ZIDOVUDINE] has an EC50 (MT4 [4]) of 0.0028 µM, a Selectivity index (MT4 [3]) of 2600 and an EC50 [5] of 0.0014 µM. For the same compound, the CC50 (MT4 [6]) was 7.8 µM and the CC50 [7] was 26 µM.
